According to US20260256792A1, “TREATMENT OF CHRONIC SPONTANEOUS URTICARIA BY ADMINISTERING (R)-2-[3-[4-AMINO-3-(2-FLUORO-4-PHENOXY-PHENYL)PYRAZOLO[3,4-D]PYRIMIDIN-1-YL]PIPERIDINE-1-CARBONYL]-4-METHYL-4-[4-(OXETAN-3-YL)PIPERAZIN-1-YL]PENT-2-ENENITRILE” (priority 2023, published 2026):

Test system: moderate-to-severe chronic spontaneous urticaria (CSU)
Test: Phase 2 CSU study: itch severity score over 7 days (ISS7)
Format: in vivo, human
Conditions: Omalizumab-Naïve
Description: The study comprises a 12 week, randomized, double-blind, placebo-controlled, multi-center, dose-ranging efficacy and safety phase, followed by a 40 week open label extension (OLE) phase (see FIG. 1). The study consists of three phases and an optional OLE phase. […] Clinically, CSU is characterized by the spontaneous and recurrent appearance of pruritic hives. The proposed primary endpoints were the UAS7 at Week 12 in EU and EU reference countries and the ISS7 in the US. Regardless of where a participant was from, all assessments were the same. The UAS7 score is a composite score containing both the HSS7 and the ISS7. This allowed a global assessment of the two key components of urticaria: hives and itch. […] The UAS is a validated PRO measure. […] The daily UAS scores range from 0 to 6 point/day. […] Patients were to complete the UAS using the e-diary. […] The following secondary endpoints were to be analyzed using the same approach as for the primary endpoint: • Change from baseline in UAS7 at Week 4 • Change from baseline in UAS7 at Week 12 (for US and US reference countries) • Change from baseline in ISS7 at Week 12 (except US and US reference countries) • Change from baseline in HSS7 at Week 12

## CC(C)(C=C(C#N)C(=O)N1CCC[C@@H](n2nc(-c3ccc(Oc4ccccc4)cc3F)c3c(N)ncnc32)C1)N1CCN(C2COC2)CC1 [rilzabrutinib, (R)-2-[3-[4-amino-3-(2-fluoro-4-phenoxy-phenyl)pyrazolo[3,4-d]pyrimidin-1-yl]piperidine-1-carbonyl]-4-methyl-4-[4-(oxetan-3-yl)piperazin-1-yl]pent-2-enenitrile]
Outlier removed, 400 mg TID, Week 1
  ISS7 Post-baseline Mean (SD): 9.79 (5.47)
Outlier removed, 400 mg TID, Week 2
  ISS7 Post-baseline Mean (SD): 8.59 (5.80)
Outlier removed, 400 mg TID, Week 3
  ISS7 Post-baseline Mean (SD): 8.18 (5.41)
Outlier removed, 400 mg TID, Week 4
  ISS7 Post-baseline Mean (SD): 7.79 (5.03)
Outlier removed, 400 mg TID, Week 5
  ISS7 Post-baseline Mean (SD): 6.92 (5.87)
Outlier removed, 400 mg TID, Week 6
  ISS7 Post-baseline Mean (SD): 7.32 (6.05)
Outlier removed, 400 mg TID, Week 7
  ISS7 Post-baseline Mean (SD): 7.14 (5.35)
Outlier removed, 400 mg TID, Week 8
  ISS7 Post-baseline Mean (SD): 7.24 (5.51)
Outlier removed, 400 mg TID, Week 9
  ISS7 Post-baseline Mean (SD): 6.68 (5.31)
Outlier removed, 400 mg TID, Week 10
  ISS7 Post-baseline Mean (SD): 6.75 (5.25)
Outlier removed, 400 mg TID, Week 11
  ISS7 Post-baseline Mean (SD): 6.99 (5.53)
Outlier removed, 400 mg TID, Week 12
  ISS7 Post-baseline Mean (SD): 5.77 (5.26)
400 mg BID, Week 1
  ISS7 % Change difference for rilzabrutinib vs. placebo LS Mean (95% CI): −23.80 (−38.99, −8.60) %
  ISS7 % Change from baseline LS Mean (SE): −33.92 (5.73) %
  ISS7 Change difference for rilzabrutinib vs. placebo LS Mean (95% CI): −3.14
  ISS7 Change from baseline LS Mean (SE): −5.06 (0.83)
400 mg BID, Week 2
  ISS7 % Change difference for rilzabrutinib vs. placebo LS Mean (95% CI): −17.28 (−32.06, −2.50) %
  ISS7 % Change from baseline LS Mean (SE): −35.92 (5.58) %
  ISS7 Change difference for rilzabrutinib vs. placebo LS Mean (95% CI): −2.26
  ISS7 Change from baseline LS Mean (SE): −5.49 (0.83)
  ISS7 Post-baseline Mean (SD): 10.32 (5.64)
400 mg BID, Week 3
  ISS7 % Change difference for rilzabrutinib vs. placebo LS Mean (95% CI): −20.30 (−35.19, −5.41) %
  ISS7 % Change from baseline LS Mean (SE): −40.91 (5.60) %
  ISS7 Change difference for rilzabrutinib vs. placebo LS Mean (95% CI): −2.82
  ISS7 Change from baseline LS Mean (SE): −6.52 (0.87)
  ISS7 Post-baseline Mean (SD): 9.16 (6.09)
400 mg BID, Week 4
  ISS7 % Change difference for rilzabrutinib vs. placebo LS Mean (95% CI): −20.53 (−36.37, −4.69) %
  ISS7 % Change from baseline LS Mean (SE): −43.47 (5.96) %
  ISS7 Change difference for rilzabrutinib vs. placebo LS Mean (95% CI): −2.86
  ISS7 Change from baseline LS Mean (SE): −6.96 (0.93)
  ISS7 Post-baseline Mean (SD): 8.32 (6.02)
400 mg BID, Week 5
  ISS7 Post-baseline Mean (SD): 8.88 (6.81)
400 mg BID, Week 6
  ISS7 Post-baseline Mean (SD): 8.85 (6.40)
400 mg BID, Week 7
  ISS7 Post-baseline Mean (SD): 8.21 (6.16)
400 mg BID, Week 8
  ISS7 Post-baseline Mean (SD): 7.33 (6.55)
400 mg BID, Week 9
  ISS7 Post-baseline Mean (SD): 7.63 (7.11)
400 mg BID, Week 10
  ISS7 Post-baseline Mean (SD): 8.17 (7.29)
400 mg BID, Week 11
  ISS7 Post-baseline Mean (SD): 7.93 (6.94)
400 mg BID, Week 12
  ISS7 % Change difference for rilzabrutinib vs. placebo LS Mean (95% CI): −14.10 (−32.26, 4.06) %
  ISS7 % Change from baseline LS Mean (SE): −48.31 (6.75) %
  ISS7 Change difference for rilzabrutinib vs. placebo LS Mean (95% CI): −1.96
  ISS7 Change from baseline LS Mean (SE): −7.73 (1.06)
  ISS7 Post-baseline Mean (SD): 8.09 (6.95)
400 mg QPM, Week 1
  ISS7 % Change difference for rilzabrutinib vs. placebo LS Mean (95% CI): −8.25 (−23.30, 6.80) %
  ISS7 % Change from baseline LS Mean (SE): −18.38 (5.55) %
  ISS7 Change difference for rilzabrutinib vs. placebo LS Mean (95% CI): −1.33
  ISS7 Change from baseline LS Mean (SE): −3.25 (0.80)
  ISS7 Post-baseline Mean (SD): 13.08 (4.52)
400 mg QPM, Week 2
  ISS7 % Change difference for rilzabrutinib vs. placebo LS Mean (95% CI): −5.32 (−19.96, 9.32) %
  ISS7 % Change from baseline LS Mean (SE): −23.96 (5.37) %
  ISS7 Change difference for rilzabrutinib vs. placebo LS Mean (95% CI): −0.76
  ISS7 Change from baseline LS Mean (SE): −3.99 (0.80)
400 mg QPM, Week 3
  ISS7 % Change difference for rilzabrutinib vs. placebo LS Mean (95% CI): −8.38 (−23.14, 6.38) %
  ISS7 % Change from baseline LS Mean (SE): −28.99 (5.42) %
  ISS7 Change difference for rilzabrutinib vs. placebo LS Mean (95% CI): −1.12
  ISS7 Change from baseline LS Mean (SE): −4.82 (0.85)
  ISS7 Post-baseline Mean (SD): 11.60 (4.68)
400 mg QPM, Week 4
  ISS7 % Change difference for rilzabrutinib vs. placebo LS Mean (95% CI): −7.02 (−22.76, 8.71) %
  ISS7 % Change from baseline LS Mean (SE): −29.97 (5.75) %
  ISS7 Change difference for rilzabrutinib vs. placebo LS Mean (95% CI): −0.93
  ISS7 Change from baseline LS Mean (SE): −5.03 (0.89)
  ISS7 Post-baseline Mean (SD): 11.39 (4.79)
400 mg QPM, Week 5
  ISS7 Post-baseline Mean (SD): 11.00 (4.68)
400 mg QPM, Week 6
  ISS7 Post-baseline Mean (SD): 10.27 (5.26)
400 mg QPM, Week 7
  ISS7 Post-baseline Mean (SD): 10.68 (5.34)
400 mg QPM, Week 8
  ISS7 Post-baseline Mean (SD): 10.72 (5.26)
400 mg QPM, Week 10
  ISS7 Post-baseline Mean (SD): 10.43 (5.30)
400 mg QPM, Week 11
  ISS7 Post-baseline Mean (SD): 11.03 (5.55)
400 mg QPM, Week 12
  ISS7 % Change difference for rilzabrutinib vs. placebo LS Mean (95% CI): −0.54 (−18.55, 17.47) %
  ISS7 % Change from baseline LS Mean (SE): −34.75 (6.64) %
  ISS7 Change difference for rilzabrutinib vs. placebo LS Mean (95% CI): 0.58
  ISS7 Change from baseline LS Mean (SE): −5.19 (1.02)
400 mg TID, Week 1
  ISS7 % Change from baseline LS Mean (SE): −37.45 (5.78) %
  ISS7 Change difference for rilzabrutinib vs. placebo LS Mean (95% CI): −4.21
  ISS7 Change from baseline LS Mean (SE): −6.13 (0.82)
  ISS7 Post-baseline Mean (SD): 9.51 (5.64)
400 mg TID, Week 2
  ISS7 % Change difference for rilzabrutinib vs. placebo LS Mean (95% CI): −27.63 (−42.70, −12.56) %
  ISS7 % Change from baseline LS Mean (SE): −46.27 (5.61) %
  ISS7 Change difference for rilzabrutinib vs. placebo LS Mean (95% CI): −4.14
  ISS7 Change from baseline LS Mean (SE): −7.37 (0.82)
  ISS7 Post-baseline Mean (SD): 8.40 (5.82)
400 mg TID, Week 3
  ISS7 % Change difference for rilzabrutinib vs. placebo LS Mean (95% CI): −27.20 (−42.33, −12.08) %
  ISS7 % Change from baseline LS Mean (SE): −47.81 (5.64) %
  ISS7 Change difference for rilzabrutinib vs. placebo LS Mean (95% CI): −3.58
  ISS7 Change from baseline LS Mean (SE): −7.29 (0.87)
  ISS7 Post-baseline Mean (SD): 8.34 (5.42)
400 mg TID, Week 4
  ISS7 % Change difference for rilzabrutinib vs. placebo LS Mean (95% CI): −24.55 (−40.74, −8.36) %
  ISS7 % Change from baseline LS Mean (SE): −47.50 (6.02) %
  ISS7 Change difference for rilzabrutinib vs. placebo LS Mean (95% CI): −3.23
  ISS7 Change from baseline LS Mean (SE): −7.33 (0.92)
  ISS7 Post-baseline Mean (SD): 7.79 (5.03)
